Experimental data taken from ChEMBL document CHEMBL2346660, “Synthesis and biological evaluation of trans 6-methoxy-1,1-dimethyl-2-phenyl-3-aryl-2,3-dihydro-1H-inden-4-yloxyalkylamine derivatives against drug susceptible, non-replicating M. tuberculosis H37Rv and clinical multidrug resistant strains” (Bioorg Med Chem Lett, 2013).
Values after ≈ are worked out from the molar mass of the structure shown. Active and inactive are the calls of the source. No cut-off for these calls is given here.

Assays:
[1] = Cytotoxicity against african green monkey Vero cells after 72 hrs by resazurin assay; format: cell-based; settings: chlorocebus sabaeus
[2] = Selectivity index, ratio of CC50 for african green monkey Vero cells tp MIC for Mycobacterium tuberculosis H37Rv; format: functional
[3] = tested on: Mycobacterium tuberculosis; assay: Antimicrobial activity against Mycobacterium tuberculosis H37Rv by BACTEC radiometric method; format: functional
[4] = Lipophilicity, log P of the compound; format: physicochemical; settings: octanol/water
[5] = tested on: Mycobacterium tuberculosis; assay: Antimicrobial activity against Mycobacterium tuberculosis H37Rv infected in mouse J774A.1 cells assessed as growth inhibition at MIC; format: functional
[6] = tested on: Mycobacterium tuberculosis; assay: Antimicrobial activity against Mycobacterium tuberculosis H37Rv infected in BALB/c mouse assessed as log10 reduction of bacterial growth in lungs at 100 mg/kg, po administered 6 days a week for 30 days starting from 2 days post infection relative to untreated control; format: functional
[7] = tested on: Mycobacterium tuberculosis; assay: Antimicrobial activity against compound-sensitive Mycobacterium tuberculosis 2280 by agar dilution method and BACTEC radiometric method; format: functional
[8] = tested on: Mycobacterium tuberculosis; format: functional, organism-based; settings: H37Rv, 6.25 ug/ml
[9] = tested on: Mycobacterium tuberculosis; assay: Antimicrobial activity against Mycobacterium tuberculosis H37Rv infected in BALB/c mouse assessed as log10 reduction of bacterial growth in lungs at 25 mg/kg, po administered 6 days a week for 30 days starting from 2 days post infection relative to untreated control; format: functional

SMILES | CC50 at 72 h [1] | Selectivity Index [2] | MIC [3] | logP [4] | growth inhibition (GI) [5] | log10cfu [6] | MIC [7] | Activity [8] | log10cfu [9]
COc1cc(OCCN2CCCCCC2)c2c(c1)C(C)(C)[C@H](c1ccccc1)[C@H]2c1ccccc1 (relative stereo) | 8.11 µg/mL (≈ 17.3 µM) | 2.6 | 3.12 µg/mL (≈ 6.65 µM) | 7.66 | – | – | – | – | –
COc1cc(OCCCN(C)C)c2c(c1)C(C)(C)[C@H](c1ccccc1)[C@H]2c1ccccc1 (relative stereo) | 4.59 µg/mL (≈ 10.7 µM) | 1.4 | 3.12 µg/mL (≈ 7.27 µM) | 6.62 | – | – | – | – | –
COc1cc(OCCN2CCOCC2)c2c(c1)C(C)(C)[C@H](c1ccccc1)[C@H]2c1ccccc1 (relative stereo) | 17.5 µg/mL (≈ 38.2 µM) | 5.6 | 3.12 µg/mL (≈ 6.83 µM) | 6.11 | – | – | – | – | –
CCN(CC)CCOc1cc(OC)cc2c1[C@H](c1ccccc1)[C@@H](c1ccccc1)C2(C)C (relative stereo) | 3.74 µg/mL (≈ 8.43 µM) | 1.19 | 3.12 µg/mL (≈ 7.04 µM) | 7.19 | – | – | – | – | –
COc1cc(OCCN(C)C)c2c(c1)C(C)(C)[C@H](c1ccccc1)[C@H]2c1ccccc1 (relative stereo) | 2.96 µg/mL (≈ 7.12 µM) | 0.47 | 6.25 µg/mL (≈ 15 µM) | 7.24 | – | – | – | – | –
COc1cc(OCCN2CCCCC2)c2c(c1)C(C)(C)[C@H](c1ccccc1)[C@H]2c1ccccc1 (relative stereo) | 2.41 µg/mL (≈ 5.29 µM) | 1.54 | 1.56 µg/mL (≈ 3.42 µM) | 6.57 | – | – | – | – | –
COc1cc(OCCN2CCCCC2)c2c(c1)C(C)(C)[C@H](c1ccccc1)[C@H]2c1c(OC)ccc2ccccc12 (relative stereo) | 5.52 µg/mL (≈ 10.3 µM) | 3.53 | 1.56 µg/mL (≈ 2.91 µM) | 8.11 | – | – | – | – | –
COc1cc(OCCN2CCCC2)c2c(c1)C(C)(C)[C@H](c1ccccc1)[C@H]2c1ccccc1 (relative stereo) | 7.49 µg/mL (≈ 17 µM) | 2.39 | 3.12 µg/mL (≈ 7.08 µM) | 6.83 | – | – | – | – | –
COc1cc(OCCN(C(C)C)C(C)C)c2c(c1)C(C)(C)[C@H](c1ccccc1)[C@H]2c1ccccc1 (relative stereo) | 49.2 µg/mL (≈ 104 µM) | 15.73 | 3.12 µg/mL (≈ 6.63 µM) | 7.82 | >90% | 1.35 | 3.12 µg/mL (≈ 6.63 µM) | Active | –
COc1cc(OCCN2CCCCCC2)c2c(c1)C(C)(C)[C@H](c1ccccc1)[C@H]2c1c(OC)ccc2ccccc12 (relative stereo) | 24 µg/mL (≈ 43.6 µM) | 15.37 | 1.56 µg/mL (≈ 2.84 µM) | 8.53 | – | – | 1.56 µg/mL (≈ 2.84 µM) | – | –
CC[C@@H](CO)NCCN[C@@H](CC)CO [ETHAMBUTOL] | 38.5 µg/mL (≈ 188 µM) | 77.02 | 0.5 µg/mL (≈ 2.45 µM) | 0.14 | – | – | – | – | –
NNC(=O)c1ccncc1 [ISONIAZID] | – | – | – | – | – | – | – | – | 2.8
CO[C@H]1/C=C/O[C@@]2(C)Oc3c(C)c(O)c4c(O)c(cc(O)c4c3C2=O)NC(=O)/C(C)=C\C=C\[C@H](C)[C@H](O)[C@@H](C)[C@@H](O)[C@@H](C)[C@H](OC(C)=O)[C@@H]1C [RIFAMYCIN] | 62.5 µg/mL (≈ 89.5 µM) | 160.1 | 0.39 µg/mL (≈ 0.559 µM) | 3.71 | – | – | – | – | –
